# Test results from ChEMBL document CHEMBL1139352, “Synthesis and evaluation of novel inhibitors of Pim-1 and Pim-2 protein kinases” (J Med Chem, 2009).
# Experiments:
# [1] = target: Hepatocyte growth factor receptor (Homo sapiens) (UniProt P08581); experiment: Inhibition of MET at 5 uM
# [2] = target: Serine/threonine-protein kinase 3 (Homo sapiens) (UniProt Q13188); experiment: Inhibition of MST2 at 5 uM
# [3] = target: RAC-beta serine/threonine-protein kinase (Homo sapiens) (UniProt P31751); experiment: Inhibition of AKT2 at 5 uM
# Mus musculus [4] = experiment: Toxicity in Swiss Webster mouse assessed as monocyte count at 10 mg/kg, ip daily for 7 days measured after 7 days; assay type: organism-based; parameters: dose 10 mg/kg, route intraperitoneal; conditions: in vivo, 168 h
# [5] = target: 5'-AMP-activated protein kinase subunit beta-1 (Homo sapiens) (UniProt Q9Y478); experiment: Inhibition of AMPK at 5 uM
# Mus musculus [6] = experiment: Toxicity in Swiss Webster mouse assessed as albumin level at 10 mg/kg, ip daily for 7 days measured after 7 days; assay type: organism-based; parameters: dose 10 mg/kg, route intraperitoneal; conditions: in vivo, 168 h
# [7] = target: Tyrosine-protein kinase Lyn (Homo sapiens) (UniProt P07948); experiment: Inhibition of LYN at 5 uM
# [8] = target: Tyrosine-protein kinase ABL1 (Homo sapiens) (UniProt P00519); experiment: Inhibition of ABL at 5 uM
# [9] = target: Insulin-like growth factor 1 receptor (Homo sapiens) (UniProt P08069); experiment: Inhibition of IGF1R at 5 uM
# [10] = target: Receptor-type tyrosine-protein kinase FLT3 (Homo sapiens) (UniProt P36888); experiment: Inhibition of FLT3 at 5 uM
# [11] = target: Ribosomal protein S6 kinase alpha-5 (Homo sapiens) (UniProt O75582); experiment: Inhibition of MSK1 at 5 uM
# Sequence of RAC-beta serine/threonine-protein kinase (Homo sapiens) (P31751 whole entry): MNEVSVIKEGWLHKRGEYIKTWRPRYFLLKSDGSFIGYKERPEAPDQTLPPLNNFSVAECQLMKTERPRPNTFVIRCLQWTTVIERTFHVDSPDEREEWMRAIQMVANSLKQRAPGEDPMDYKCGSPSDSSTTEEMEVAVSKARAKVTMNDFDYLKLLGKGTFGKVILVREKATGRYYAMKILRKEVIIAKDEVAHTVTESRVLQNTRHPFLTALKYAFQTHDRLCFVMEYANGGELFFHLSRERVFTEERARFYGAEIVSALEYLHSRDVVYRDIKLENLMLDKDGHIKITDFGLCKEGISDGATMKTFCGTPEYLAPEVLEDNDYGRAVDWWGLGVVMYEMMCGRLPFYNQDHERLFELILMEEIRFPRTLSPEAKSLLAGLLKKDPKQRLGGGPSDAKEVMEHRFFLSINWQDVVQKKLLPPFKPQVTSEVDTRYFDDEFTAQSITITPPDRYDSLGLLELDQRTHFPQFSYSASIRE
# Sequence of Receptor-type tyrosine-protein kinase FLT3 (Homo sapiens) (P36888 whole entry): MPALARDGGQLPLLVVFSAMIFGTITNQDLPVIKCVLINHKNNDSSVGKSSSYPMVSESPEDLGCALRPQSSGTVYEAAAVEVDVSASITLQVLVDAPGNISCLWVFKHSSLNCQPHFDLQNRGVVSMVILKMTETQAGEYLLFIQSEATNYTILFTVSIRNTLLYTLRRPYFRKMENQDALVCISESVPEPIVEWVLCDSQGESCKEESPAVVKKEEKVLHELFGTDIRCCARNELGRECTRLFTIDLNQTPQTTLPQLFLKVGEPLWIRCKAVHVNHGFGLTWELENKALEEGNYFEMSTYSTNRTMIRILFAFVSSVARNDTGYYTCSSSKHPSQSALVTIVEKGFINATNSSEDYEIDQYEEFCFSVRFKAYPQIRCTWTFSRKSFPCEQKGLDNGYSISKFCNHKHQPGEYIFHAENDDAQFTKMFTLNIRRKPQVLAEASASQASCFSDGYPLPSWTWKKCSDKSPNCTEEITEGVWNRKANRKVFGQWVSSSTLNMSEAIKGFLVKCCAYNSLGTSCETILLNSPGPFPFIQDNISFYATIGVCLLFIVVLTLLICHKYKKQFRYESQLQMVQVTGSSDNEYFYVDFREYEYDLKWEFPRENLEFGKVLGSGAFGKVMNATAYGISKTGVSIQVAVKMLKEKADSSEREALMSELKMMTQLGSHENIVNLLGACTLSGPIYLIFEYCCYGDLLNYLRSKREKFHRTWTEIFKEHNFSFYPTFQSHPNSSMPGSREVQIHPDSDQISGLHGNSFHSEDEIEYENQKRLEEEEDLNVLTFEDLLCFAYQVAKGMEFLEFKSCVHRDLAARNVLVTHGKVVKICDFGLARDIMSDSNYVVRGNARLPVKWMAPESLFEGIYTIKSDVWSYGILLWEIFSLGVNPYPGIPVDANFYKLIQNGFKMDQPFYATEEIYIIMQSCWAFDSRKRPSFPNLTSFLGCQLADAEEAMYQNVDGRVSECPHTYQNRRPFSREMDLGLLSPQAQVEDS
# Sequence of Tyrosine-protein kinase ABL1 (Homo sapiens) (P00519 whole entry): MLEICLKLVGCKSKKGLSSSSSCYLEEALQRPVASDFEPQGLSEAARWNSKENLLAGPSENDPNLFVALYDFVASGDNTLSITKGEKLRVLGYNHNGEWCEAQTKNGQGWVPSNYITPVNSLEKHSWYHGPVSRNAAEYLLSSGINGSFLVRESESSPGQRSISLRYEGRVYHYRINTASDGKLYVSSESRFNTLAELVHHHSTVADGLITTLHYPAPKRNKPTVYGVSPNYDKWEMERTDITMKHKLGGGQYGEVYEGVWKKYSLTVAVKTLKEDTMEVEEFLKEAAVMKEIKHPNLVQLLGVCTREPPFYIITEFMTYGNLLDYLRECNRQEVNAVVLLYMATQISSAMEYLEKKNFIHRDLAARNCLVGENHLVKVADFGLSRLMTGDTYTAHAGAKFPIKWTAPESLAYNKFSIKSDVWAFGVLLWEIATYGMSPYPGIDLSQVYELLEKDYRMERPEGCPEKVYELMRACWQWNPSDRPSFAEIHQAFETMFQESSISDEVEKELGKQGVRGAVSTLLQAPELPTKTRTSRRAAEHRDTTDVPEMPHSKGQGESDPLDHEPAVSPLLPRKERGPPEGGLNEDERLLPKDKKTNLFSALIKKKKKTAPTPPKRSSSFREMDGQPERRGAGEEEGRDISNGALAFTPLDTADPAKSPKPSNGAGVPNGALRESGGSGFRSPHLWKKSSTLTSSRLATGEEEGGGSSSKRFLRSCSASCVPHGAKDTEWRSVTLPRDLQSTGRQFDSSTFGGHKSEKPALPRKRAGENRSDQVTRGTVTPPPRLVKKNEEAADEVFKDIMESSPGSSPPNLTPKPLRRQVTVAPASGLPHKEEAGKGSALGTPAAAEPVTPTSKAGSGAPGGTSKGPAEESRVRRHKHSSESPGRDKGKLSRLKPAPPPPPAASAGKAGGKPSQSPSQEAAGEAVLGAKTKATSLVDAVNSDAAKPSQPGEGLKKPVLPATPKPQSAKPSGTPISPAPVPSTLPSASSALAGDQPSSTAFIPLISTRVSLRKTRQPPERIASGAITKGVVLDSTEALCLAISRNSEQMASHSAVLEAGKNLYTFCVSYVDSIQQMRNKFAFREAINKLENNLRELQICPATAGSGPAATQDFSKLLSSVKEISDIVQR
# Sequence of Serine/threonine-protein kinase 3 (Homo sapiens) (Q13188 whole entry): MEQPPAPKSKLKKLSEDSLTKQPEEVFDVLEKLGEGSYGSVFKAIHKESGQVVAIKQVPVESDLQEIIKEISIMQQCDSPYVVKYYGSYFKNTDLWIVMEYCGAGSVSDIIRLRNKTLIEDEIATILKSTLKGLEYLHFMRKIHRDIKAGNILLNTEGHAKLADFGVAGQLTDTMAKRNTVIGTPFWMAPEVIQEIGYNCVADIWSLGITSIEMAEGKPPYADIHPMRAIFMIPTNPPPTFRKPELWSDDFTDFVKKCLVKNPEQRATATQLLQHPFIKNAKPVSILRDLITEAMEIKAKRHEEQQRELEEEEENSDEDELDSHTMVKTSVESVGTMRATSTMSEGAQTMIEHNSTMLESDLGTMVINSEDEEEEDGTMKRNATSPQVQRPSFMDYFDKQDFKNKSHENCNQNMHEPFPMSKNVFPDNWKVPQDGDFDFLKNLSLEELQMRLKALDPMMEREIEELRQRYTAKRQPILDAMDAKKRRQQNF
# Sequence of 5'-AMP-activated protein kinase subunit beta-1 (Homo sapiens) (Q9Y478 whole entry): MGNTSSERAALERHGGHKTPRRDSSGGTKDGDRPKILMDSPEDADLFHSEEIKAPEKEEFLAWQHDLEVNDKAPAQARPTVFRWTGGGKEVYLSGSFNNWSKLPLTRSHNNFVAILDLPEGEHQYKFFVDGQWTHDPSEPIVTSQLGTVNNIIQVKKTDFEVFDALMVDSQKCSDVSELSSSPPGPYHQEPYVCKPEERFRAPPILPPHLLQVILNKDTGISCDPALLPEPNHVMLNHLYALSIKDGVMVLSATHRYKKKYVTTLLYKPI
# Sequence of Hepatocyte growth factor receptor (Homo sapiens) (P08581 whole entry): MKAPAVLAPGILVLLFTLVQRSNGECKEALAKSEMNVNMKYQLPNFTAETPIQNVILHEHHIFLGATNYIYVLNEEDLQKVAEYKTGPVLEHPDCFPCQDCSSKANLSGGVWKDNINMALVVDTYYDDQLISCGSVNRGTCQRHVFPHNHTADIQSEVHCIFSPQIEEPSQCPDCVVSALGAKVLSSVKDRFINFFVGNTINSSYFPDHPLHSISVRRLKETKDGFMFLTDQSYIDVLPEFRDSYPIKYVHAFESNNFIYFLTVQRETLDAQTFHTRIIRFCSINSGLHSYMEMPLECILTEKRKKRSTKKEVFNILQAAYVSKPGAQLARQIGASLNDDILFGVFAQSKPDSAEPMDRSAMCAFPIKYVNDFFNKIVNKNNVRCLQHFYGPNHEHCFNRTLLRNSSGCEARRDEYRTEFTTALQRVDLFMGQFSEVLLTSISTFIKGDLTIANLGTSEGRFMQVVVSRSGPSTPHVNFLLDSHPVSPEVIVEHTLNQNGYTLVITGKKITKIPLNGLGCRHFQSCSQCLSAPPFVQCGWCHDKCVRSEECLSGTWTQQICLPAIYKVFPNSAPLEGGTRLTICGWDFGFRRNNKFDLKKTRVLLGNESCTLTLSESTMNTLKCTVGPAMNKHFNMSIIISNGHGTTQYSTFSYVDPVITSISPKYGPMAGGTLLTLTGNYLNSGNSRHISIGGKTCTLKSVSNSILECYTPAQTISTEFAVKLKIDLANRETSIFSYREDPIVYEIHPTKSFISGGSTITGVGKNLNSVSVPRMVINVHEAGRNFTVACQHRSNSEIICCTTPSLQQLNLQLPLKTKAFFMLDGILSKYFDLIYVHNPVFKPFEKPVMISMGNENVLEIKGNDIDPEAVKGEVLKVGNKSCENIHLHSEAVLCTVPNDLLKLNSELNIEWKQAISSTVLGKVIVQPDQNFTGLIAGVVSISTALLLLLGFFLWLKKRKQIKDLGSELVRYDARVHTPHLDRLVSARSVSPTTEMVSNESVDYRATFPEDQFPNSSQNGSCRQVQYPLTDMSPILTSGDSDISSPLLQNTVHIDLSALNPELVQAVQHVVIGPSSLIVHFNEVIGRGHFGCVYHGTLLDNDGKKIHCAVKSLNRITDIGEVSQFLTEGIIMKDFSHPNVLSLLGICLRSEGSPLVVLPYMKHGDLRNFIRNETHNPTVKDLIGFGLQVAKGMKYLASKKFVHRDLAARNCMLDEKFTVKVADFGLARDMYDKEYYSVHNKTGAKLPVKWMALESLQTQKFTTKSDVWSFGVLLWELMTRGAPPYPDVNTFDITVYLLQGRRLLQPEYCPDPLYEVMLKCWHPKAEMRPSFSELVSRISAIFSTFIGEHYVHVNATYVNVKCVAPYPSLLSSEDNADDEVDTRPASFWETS
smiles,measurement,setting,value
CCCOc1ccc(/C=C2\SC(=O)NC2=O)cc1,inhibition,[1],-6%
same,inhibition,[2],1%
same,inhibition,[3],-1%
same,Activity,Mus musculus [4],0.08 ×10⁹ /L
same,inhibition,[5],7%
same,Activity,Mus musculus [6],2.9 g/dL
same,inhibition,[7],8%
same,inhibition,[8],6%
same,inhibition,[9],-1%
same,inhibition,[10],1%
same,inhibition,[11],-1%
